Inhibition and EC50 data for 35 molecules are collected here from patent publication US10077264B2, “Derivatives and methods of treating hepatitis B infections” (Novira Therapeutics, Inc., priority 2014, dated 2018).

Structures are written as SMILES.

One assay relates to HBV replication in HepG2.2.15 cells. In words: HBV replication inhibition assay (BDNA assay). Format: cell-based. The conditions noted are these: Hepatitis B virus, 144 h; HepG2.2.15 cells, 10 μM, 6 days, encapsidated HBV DNA in supernatant; read-out: Activity in BDNA-assay (activity at 10 μM). An excerpt:
HBV replication inhibition by the compounds of this invention could be determined in cells infected or transfected with HBV, or cells with stably integrated HBV, such as HepG2.2.15 cells (Sells et al. 1987). In this example, HepG2.2.15 cells were maintained in cell culture medium containing 10% fetal bovine serum (FBS), Geneticin, L-glutamine, penicillin and streptomycin. HepG2.2.15 cells could be seeded in 96-well plates at a density of 40,000 cells/well and be treated with serially diluted compounds at a final DMSO concentration of 0.5% either alone or in combination by adding drugs in a checker box format. Cells were incubated with compounds for three days, after which medium was removed and fresh medium containing compounds was added to cells and incubated for another three days. At day 6, supernatant was removed and treated with DNase at 37° C. for 60 minutes, followed by enzyme inactivation at 75° C. for 15 minutes. Encapsidated HBV DNA was released from the virions and covalently linked HBV polymerase by incubating in lysis buffer (Affymetrix QS0010) containing […] proteinase K at 50° C. for 40 minutes. HBV DNA was denatured by addition of 0.2 M NaOH and detected using a branched DNA (BDNA) QuantiGene assay kit according to manufacturer recommendation (Affymetrix). HBV DNA levels could also be quantified using qPCR, based on amplification of encapsidated HBV DNA extraction with QuickExtraction Solution (Epicentre Biotechnologies) and amplification of HBV DNA using HBV specific PCR probes that can hybridize to HBV DNA and a fluorescently labeled probe for quantitation. In addition, cell viability of HepG2.2.15 cells incubated with test compounds alone or in combination was determined by using CellTitre-Glo reagent according to the manufacturer protocol (Promega). The mean background signal from wells containing only culture medium was subtracted from all other samples, and percent inhibition at each compound concentration was calculated by normalizing to signals from HepG2.2.15 cells treated with 0.5% DMSO using equation E1. % inhibition=(DMSOave−Xi)/DMSOave×100% E1: • where DMSOave is the mean signal calculated from the wells that were treated with DMSO control (0% inhibition control) and Xi is the signal measured from the individual wells. EC50 values, effective concentrations that achieved 50% inhibitory effect, were determined by non-linear fitting using Graphpad Prism software (San Diego, Calif.) and equation E2 Y=Ymin+(Ymax−Ymin)/(1+10(Log EC50−X)×HillSlope) E2: • where Y represents percent inhibition values and X represents the logarithm of compound concentrations.
Selected compounds of the invention were assayed in the HBV replication assay (BDNA assay), as described above and a representative group of these active compounds is shown in Table 3.
On to `N#Cc1ccc(Cl)cc1NC(=O)N1CCc2[nH]nc(-c3ccccc3)c2C1` [Compound 201], for which the inhibition at 10 µM is above 50%.
Still for that read-out and setting: the value for `O=C(Nc1ccc(Br)c(Cl)c1)N1CCc2[nH]nc(-c3ccccc3)c2C1` [Compound 204] was above 50%; that for `O=C(Nc1cc(Cl)ccc1F)N1CCc2[nH]nc(-c3ccccc3)c2C1` [Compound 214] was above 50%; that for `O=C(Nc1cnc(Cl)c(Cl)c1)N1CCc2[nH]nc(-c3ccccc3)c2C1` [Compound 226] was above 50%.
Regarding `O=C(Nc1cccc(Cl)c1)N1CCc2[nH]nc(-c3cccc(F)c3)c2C1` [Compound 277, N-(3-chlorophenyl)-3-(3-fluorophenyl)-1,4,6,7-tetrahydropyrazolo[4,3-c]pyridine-5-carboxamide], the inhibition at 10 µM was above 50%.
Consider `Cc1ccc(-c2n[nH]c3c2CN(C(=O)Nc2cccc(Cl)c2)CC3)cc1` [Compound 281, N-(3-chlorophenyl)-3-(p-tolyl)-1,4,6,7-tetrahydropyrazolo[4,3-c]pyridine-5-carboxamide], for which the inhibition at 10 µM was above 50%.

The assay is the same for the next values; noted with them: Hepatitis B virus, HepG2.2.15, 144 h, HepG2.2.15 cells, 6 days, encapsidated HBV DNA in supernatant; read-out: Activity in BDNA-assay (EC50).
For orientation: EC50 means the concentration needed to bring the measured effect to its halfway point. With `O=C(Nc1cccc(Cl)c1Cl)N1CCc2[nH]nc(-c3ccccc3)c2C1` [Compound 190], the EC50 fell in the range of 500 to 1000 nM.
Same read-out and setting: then `O=C(Nc1cc(Cl)ccc1Cl)N1CCc2[nH]nc(-c3ccccc3)c2C1` [Compound 191], with 500 to 1000 nM.
On the same count and under the same terms, the value for `Cc1c(Cl)cccc1NC(=O)N1CCc2[nH]nc(-c3ccccc3)c2C1` [Compound 192] was 100 to 500 nM.
Consider `O=C(Nc1ccc(F)c(Cl)c1F)N1CCc2[nH]nc(-c3ccccc3)c2C1` [Compound 205], for which the EC50 was 100 to 500 nM.
In the case of `O=C(Nc1cccc(Cl)c1)N1CCc2[nH]nc(-c3ccccc3F)c2C1` [Compound 276, N-(3-chlorophenyl)-3-(2-fluorophenyl)-1,4,6,7-tetrahydropyrazolo[4,3-c]pyridine-5-carboxamide], the concentration for a half-maximal effect (EC50) lay within 100 to 500 nM.
Regarding `O=C(Nc1cccc(Cl)c1)N1CCc2[nH]nc(-c3ccc(F)cc3)c2C1` [Compound 278, N-(3-chlorophenyl)-3-(4-fluorophenyl)-1,4,6,7-tetrahydropyrazolo[4,3-c]pyridine-5-carboxamide], the EC50 was in the range of 100 to 500 nM.
Consider `Cc1ccccc1-c1n[nH]c2c1CN(C(=O)Nc1cccc(Cl)c1)CC2` [Compound 279, N-(3-chlorophenyl)-3-(o-tolyl)-1,4,6,7-tetrahydropyrazolo[4,3-c]pyridine-5-carboxamide], for which the EC50 fell in the range of 100 to 500 nM.
In the case of `Cc1cccc(-c2n[nH]c3c2CN(C(=O)Nc2cccc(Cl)c2)CC3)c1` [Compound 280, N-(3-chlorophenyl)-3-(m-tolyl)-1,4,6,7-tetrahydropyrazolo[4,3-c]pyridine-5-carboxamide], the half-maximal effective concentration (EC50) lay within 100 to 500 nM.
Take `O=C(Nc1cccc(Cl)c1)N1CCc2[nH]nc(-c3cccnc3)c2C1` [Compound 286, N-(3-chlorophenyl)-3-(3-pyridyl)-1,4,6,7-tetrahydropyrazolo[4,3-c]pyridine-5-carboxamide]: the concentration giving a half-maximal response (EC50) lay in the range of 500 to 1000 nM.
In the case of `O=C(Nc1cccc(Cl)c1)N1CCc2[nH]nc(-c3ccncc3)c2C1` [Compound 287], the concentration for a half-maximal effect (EC50) was in the range of 100 to 500 nM.
Regarding `O=C(Nc1cccc(Cl)c1)N1CCc2[nH]nc(-c3ncccn3)c2C1` [Compound 289, N-(3-chlorophenyl)-3-pyrimidin-2-yl-1,4,6,7-tetrahydropyrazolo[4,3-c]pyridine-5-carboxamide], the half-maximal effective concentration (EC50) was in the range of 10 to 100 nM.
Take `O=C(Nc1cccc(Cl)c1)N1CCc2[nH]nc(-c3cccnn3)c2C1` [Compound 290]: the EC50 fell in the range of 10 to 100 nM.
On the same count and under the same terms, the value for `O=C(Nc1cccc(Cl)c1)N1CCc2[nH]nc(-c3cncnc3)c2C1` [Compound 291, N-(3-chlorophenyl)-3-pyrimidin-5-yl-1,4,6,7-tetrahydropyrazolo[4,3-c]pyridine-5-carboxamide] was 100 to 500 nM; that for `COc1cccc(-c2n[nH]c3c2CN(C(=O)Nc2cccc(Cl)c2)CC3)c1` [Compound 326, N-(3-chlorophenyl)-3-(3-methoxyphenyl)-1,4,6,7-tetrahydropyrazolo[4,3-c]pyridine-5-carboxamide] was 100 to 500 nM; that for `COc1ccccc1-c1n[nH]c2c1CN(C(=O)Nc1cccc(Cl)c1)CC2` [Compound 327, N-(3-chlorophenyl)-3-(2-methoxyphenyl)-1,4,6,7-tetrahydropyrazolo[4,3-c]pyridine-5-carboxamide] was 100 to 500 nM.
As for `CC1CCCC(NC(=O)N2CCc3[nH]nc(-c4ccccc4)c3C2)C1` (centres unmarked) [Compound 436], the EC50 is 500 to 1000 nM.
As to `O=C(Nc1cccc(Cl)c1)N1CCc2[nH]nc(-c3cccnc3F)c2C1` [Compound 472, N-(3-chlorophenyl)-3-(2-fluoro-3-pyridyl)-1,4,6,7-tetrahydropyrazolo[4,3-c]pyridine-5-carboxamide], the 50% effective concentration (EC50) was in the range of 100 to 500 nM.
Consider `O=C(Nc1cccc(Cl)c1)N1CCc2[nH]nc(-c3ccc(F)nc3)c2C1` [Compound 473, N-(3-chlorophenyl)-3-(6-fluoro-3-pyridyl)-1,4,6,7-tetrahydropyrazolo[4,3-c]pyridine-5-carboxamide], for which the EC50 lay in the range of 500 to 1000 nM.
Same read-out and setting: the value for `Cn1cc(-c2n[nH]c3c2CN(C(=O)Nc2cccc(Cl)c2)CC3)cn1` [Compound 495, N-(3-chlorophenyl)-3-(1-methylpyrazol-4-yl)-1,4,6,7-tetrahydropyrazolo[4,3-c]pyridine-5-carboxamide] was 1000 to 1500 nM; that for `Cn1nccc1-c1n[nH]c2c1CN(C(=O)Nc1cccc(Cl)c1)CC2` [Compound 496] was 100 to 500 nM; that for `O=C(Nc1cccc(Cl)c1)N1CCc2[nH]nc(-c3ccn[nH]3)c2C1` [Compound 497] was 100 to 500 nM.
As for `O=C(Nc1cccc(Cl)c1)N1CCc2ncn(-c3ccccc3)c2C1` [Compound 542, N-(3-chlorophenyl)-3-phenyl-6,7-dihydro-4H-imidazo[4,5-c]pyridine-5-carboxamide], the EC50 was 500 to 1000 nM.
Consider `Cn1ccc(-c2n[nH]c3c2CN(C(=O)Nc2cccc(Cl)c2)CC3)n1` [Compound 555], for which the EC50 fell in the range of 100 to 500 nM.
Regarding `O=C(Nc1cccc(C2CC2)c1)N1CCc2[nH]nc(-c3ccccc3)c2C1` [Compound 556], the EC50 fell in the range of 100 to 500 nM.
Regarding `N#Cc1cccc(NC(=O)N2CCc3[nH]nc(-c4ccccc4)c3C2)c1F` [Compound 559], the EC50 is 10 to 100 nM.
As to `N#Cc1cc(NC(=O)N2CCc3[nH]nc(-c4ccccc4)c3C2)ccc1F` [Compound 560], the EC50 is 10 to 100 nM.
With `O=C(Nc1cccc(Cl)c1)N1CCc2[nH]nc(-c3ccsc3)c2C1` [Compound 562, N-(3-chlorophenyl)-3-(3-thienyl)-1,4,6,7-tetrahydropyrazolo[4,3-c]pyridine-5-carboxamide], the EC50 lay within 10 to 100 nM.
Same read-out and setting: then `O=C(Nc1cccc(Cl)c1)N1CCc2c(ncn2-c2ccccc2)C1` [Compound 583, N-(3-chlorophenyl)-1-phenyl-6,7-dihydro-4H-imidazo[4,5-c]pyridine-5-carboxamide], with 1500 to 5000 nM.

The assay is the same for the next values; noted with them: Hepatitis B virus, HepG2.2.15, 144 h, read-out: Activity in BDNA-assay (activity at 10 μM).
In the case of `COc1ccc(-c2n[nH]c3c2CN(C(=O)Nc2cccc(Cl)c2)CC3)cc1` [Compound 325, N-(3-chlorophenyl)-3-(4-methoxyphenyl)-1,4,6,7-tetrahydropyrazolo[4,3-c]pyridine-5-carboxamide], the inhibition at 10 µM is above 50%.
